Laboratory results published in patent US7402576B2, “Phosphinic acid analogs of glutamate” (Givaudan SA, priority 2002, dated 2008).
pIC50: −log10 of the molar value.

What was measured:
[1] = target: T1, enzyme of Corynebacterium striatum Ax 20 (SEQ ID No. 1) (Corynebacterium striatum, UniProt Q8GGD4); assay: Enzyme inhibition, cellular extract, Nα-lauroyl-L-glutamine cleavage, fluorescamine readout; format: biochemical, Corynebacterium striatum Ax 20 (DSM 14267); details: substrate Nα-lauroyl-L-glutamine 50 μM, 10 min preincubation at 37° C., 15 min incubation, pH 7
T1 construct: endogenous in cells; host or cells: Corynebacterium striatum Ax 20 (DSM 14267), wild-type cell extract
T1 sequence (Q8GGD4 2-400): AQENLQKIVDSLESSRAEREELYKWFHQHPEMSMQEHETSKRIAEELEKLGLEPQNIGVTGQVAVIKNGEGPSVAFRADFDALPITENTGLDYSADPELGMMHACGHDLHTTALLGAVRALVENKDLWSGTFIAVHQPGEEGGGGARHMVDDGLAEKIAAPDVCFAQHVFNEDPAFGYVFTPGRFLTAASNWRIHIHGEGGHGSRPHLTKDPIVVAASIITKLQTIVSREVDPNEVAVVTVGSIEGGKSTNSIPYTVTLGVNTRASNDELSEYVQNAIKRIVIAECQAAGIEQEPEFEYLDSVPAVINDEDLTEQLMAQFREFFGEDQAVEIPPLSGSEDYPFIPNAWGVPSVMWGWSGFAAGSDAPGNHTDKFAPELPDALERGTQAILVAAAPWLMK
Procedure: Cellular Extracts of Corynebacterium striatum Ax 20 (DSM 14267) are prepared by mechanical disruption and subsequent centrifugation.
The extract (50 μl ml corresponding to 0.2 ml initial cell culture) is added to 50 μl of Buffer A (Phosphate Buffer, pH 7). Various concentrations of the compounds of the present invention are added in a volume of 40 μl, and after 10 min preincubation at 37° C., the reaction is and amended with 10 μl of substrate (Nα-lauroyl-L-glutamine, final concentration 50 μM). The samples are incubated for 15 min and then the reaction is stopped by adding 75 μl of Fluorescamine (2.5 mM dissolved in Acetonitrile). The fluorescence resulting from derivatization of the released glutamine with fluorescamine is determined at an excitation wavelength of 381 nm and an emission wavelength of 470 nm.
By comparing the samples containing compounds of the present invention with control samples with enzyme and substrate only, the inhibition (%) is calculated. Alternatively, the same assay is made with a recombinantly formed enzyme produced with a strain containing an expression vector comprising a nucleic acid sequence encoding for the enzyme.

Corynebacterium Ax20 = assay: Inhibition of the enzymatic activity in living cells, release of lauric acid by GC; format: cell-based, Corynebacterium striatum Ax 20; details: 0.2 μM compound, stationary phase living cells, substrate Nα-lauroyl-L-glutamine 1 mM, 1 h
Procedure: The uptake of the compounds in bacterial cells and the inhibition of the enzyme contained therein may be measured using an assay based on stationary-phase living cells. Thus, cells may be incubated along with inhibitory compound or compounds, and the substrate (i.e. the material found in sweat, which when cleaved by the enzyme forms the malodorous acids), and the release of acids may be measured at various inhibitor concentrations. By comparing IC50 values obtained with the living cells with the IC50 values obtained with the isolated enzyme, the ease of penetration of the compounds into the bacterial cells can be assessed.
In order to evaluate enzyme activity in intact cells, stationary phase living cells of Ax20 are harvested and resuspended in Buffer A to an optical density at 600 nm of 0.25. Inhibitory compounds are added at various concentrations, and after a preincubation of 15 min, the substrate (Nα-lauroyl-L-glutamine, 1 mM final concentration) is added. The samples are incubated for 1 h and then extracted with MTBE and HCl and analysed for released lauric acid using capillary GC. By comparing the samples containing compounds of the present invention with control samples with bacteria and substrate only, the inhibition (%) is calculated. By comparing the inhibitory capacity of the compounds on the isolated enzyme with the values obtained using intact cells, the relative uptake of the compounds by the cells can be assessed. From Table 2 it appears, that compounds of the present invention can cross the bacterial cell wall and cytoplasmatic membrane, and thus can have inhibitory activity in living cells.

| Compound | pIC50 [1] | % inhibition of release of fatty acids by Corynebacterium Ax20 at a concentration of 0.2 μM (Corynebacterium Ax20) |
| --- | --- | --- |
| 4-Carbamoyl-2-(hydroxy-naphthalen-2-ylmethyl-phosphinoylmethyl)-butyric acid [Compound 5g] | 6.86 | – |
| 4-Carbamoyl-2-[hydroxy-(3-phenyl-propyl)-phosphinoylmethyl]-butyric acid [Compound 5t] | 6.90 | – |
| 4-Carbamoyl-2-[hydroxy-(4-isopropyl-cyclohex-1-enylmethyl)-phosphinoylmethyl]-butyric acid [Compound 5z] | 7.49 | – |
| 4-Carbamoyl-2-[hydroxy-(4-phenyl-butyl)-phosphinoylmethyl]-butyric acid [Compound 5x] | 7.40 | – |
| CCCCCCCCCCP(=O)(O)CC(CCC(N)=O)C(=O)O (stereo not drawn) [Compound 5a, 4-Carbamoyl-2-(decyl-hydroxy-phosphinoylmethyl)-butyric acid] | 7.52 | 60.9% |
| CC(CCc1ccccc1)CCP(=O)(O)CC(CCC(N)=O)C(=O)O (stereo not drawn) [Compound 5c, 4-Carbamoyl-2-[hydroxy-(3-methyl-5-phenyl-pentyl)-phosphinoylmethyl]-butyric acid] | 7.94 | 70.5% |
| CC(C)CCCC(C)CCP(=O)(O)CC(CCC(N)=O)C(=O)O (stereo not drawn) [Compound 5n, 4-Carbamoyl-2-[(3,7-dimethyl-octyl)-hydroxy-phosphinoylmethyl]-butyric acid] | 8.05 | 69.5% |
| CCCCCCCCP(=O)(O)CC(CCC(N)=O)C(=O)O (stereo not drawn) [Compound 5y, 4-Carbamoyl-2-(hydroxy-octyl-phosphinoylmethyl)-butyric acid] | 7.75 | 64.9% |
